In one series the target is human Smo (Homo sapiens (Human), UniProt Q99835). Nature of the series: Smo radioligand competition binding assay. In outline:
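Membranes from HEK293 cells expressing surface human Smo 181-781 (40 μg protein/well) incubated 2 h at room temperature with test compound and tritiated Smo antagonist (3 nM), pH 7.5 Tris buffer; filtration and scintillation counting. Non-specific binding defined with 30 μM cold antagonist; IC50 from four-parameter sigmoidal fit.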
(In a radioligand displacement assay an active substance lowers the binding of a labelled ligand.)

In another series the test system is Gli-Luc/MEF cells. Briefly: Gli-Luc/MEF assay. It counts as cell-based, mouse. Conditions: Mus musculus, MEF; Shh-stimulated luciferase, 48 hours. The procedure, abridged: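 Mouse embryonic fibroblasts from Gli-Luc transgenic mice (luciferase under Gli response element) dosed with compounds (final […], 3-fold series), then stimulated with recombinant mouse Shh at final 2 μg/mL. After 48 h at 37 °C, luminescence read by Bright-Glo; IC50 from inhibition of Shh-induced signal.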

The next series relates to Gli1. Briefly: Down regulation of Smo targeted gene Gli1 in the brain, primary medulloblastoma model. It is filed as in vivo. The conditions noted are these: Ptch1+/-p53-/- medulloblastoma mice, 30 mg/kg once daily for 4 days oral gavage, 6 hours post last dose. On the procedure:
Down Regulation of Smo Targeted Gene Gli1 in the Brain by A-116
In this study, 6-week-old Ptch1+/−p53−/− primary medulloblastoma mice (n=3 per group) were treated with 30 mg/kg of A-116 or vehicle (0.5% methylcellulose (MC)) once daily for 4 days by oral gavage. On day 4, at 6 hours post last dose, mice were euthanized and tumor bearing cerebella were removed. Total RNA was extracted from the tumor tissue together with the cerebella using the RNeasy Mini Kit (Qiagen). Subsequently, cDNA was synthesized from the RNA using High Capacity cDNA Reverse Transcription Kit (Applied Biosystems) according to the protocol provided by the vendor. Quantitative real-time PCR analysis of Smo targeted gene Gli1 expression level was performed using RT-PCR ABI Prism 7900 sequence detection system (Applied Biosystems).

A short description of series [1]: rat plasma protein binding. It is filed as in vitro ADME. Conditions: previously determined.
In a further series the target is P-glycoprotein (Homo sapiens (Human), UniProt P08183). Briefly: P-glycoprotein substrate status. It counts as in vitro ADME.

Structures are written as SMILES.

human Smo, sequence (Q99835 181-787): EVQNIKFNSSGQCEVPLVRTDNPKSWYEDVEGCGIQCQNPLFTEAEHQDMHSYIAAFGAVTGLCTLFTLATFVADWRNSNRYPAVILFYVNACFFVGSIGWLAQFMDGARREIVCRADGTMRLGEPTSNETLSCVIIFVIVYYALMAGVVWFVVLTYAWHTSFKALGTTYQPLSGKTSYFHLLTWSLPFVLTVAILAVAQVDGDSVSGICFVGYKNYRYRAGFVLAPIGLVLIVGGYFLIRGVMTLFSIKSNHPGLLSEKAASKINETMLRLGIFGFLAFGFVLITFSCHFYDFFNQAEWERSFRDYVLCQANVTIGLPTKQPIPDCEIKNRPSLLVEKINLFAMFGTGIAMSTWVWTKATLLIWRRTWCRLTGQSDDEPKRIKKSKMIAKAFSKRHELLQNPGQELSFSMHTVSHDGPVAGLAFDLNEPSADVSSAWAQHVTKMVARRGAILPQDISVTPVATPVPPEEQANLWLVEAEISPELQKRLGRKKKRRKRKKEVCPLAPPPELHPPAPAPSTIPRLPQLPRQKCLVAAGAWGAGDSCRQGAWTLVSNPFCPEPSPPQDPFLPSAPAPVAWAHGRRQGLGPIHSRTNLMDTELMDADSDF
P-glycoprotein, sequence (P08183 whole entry): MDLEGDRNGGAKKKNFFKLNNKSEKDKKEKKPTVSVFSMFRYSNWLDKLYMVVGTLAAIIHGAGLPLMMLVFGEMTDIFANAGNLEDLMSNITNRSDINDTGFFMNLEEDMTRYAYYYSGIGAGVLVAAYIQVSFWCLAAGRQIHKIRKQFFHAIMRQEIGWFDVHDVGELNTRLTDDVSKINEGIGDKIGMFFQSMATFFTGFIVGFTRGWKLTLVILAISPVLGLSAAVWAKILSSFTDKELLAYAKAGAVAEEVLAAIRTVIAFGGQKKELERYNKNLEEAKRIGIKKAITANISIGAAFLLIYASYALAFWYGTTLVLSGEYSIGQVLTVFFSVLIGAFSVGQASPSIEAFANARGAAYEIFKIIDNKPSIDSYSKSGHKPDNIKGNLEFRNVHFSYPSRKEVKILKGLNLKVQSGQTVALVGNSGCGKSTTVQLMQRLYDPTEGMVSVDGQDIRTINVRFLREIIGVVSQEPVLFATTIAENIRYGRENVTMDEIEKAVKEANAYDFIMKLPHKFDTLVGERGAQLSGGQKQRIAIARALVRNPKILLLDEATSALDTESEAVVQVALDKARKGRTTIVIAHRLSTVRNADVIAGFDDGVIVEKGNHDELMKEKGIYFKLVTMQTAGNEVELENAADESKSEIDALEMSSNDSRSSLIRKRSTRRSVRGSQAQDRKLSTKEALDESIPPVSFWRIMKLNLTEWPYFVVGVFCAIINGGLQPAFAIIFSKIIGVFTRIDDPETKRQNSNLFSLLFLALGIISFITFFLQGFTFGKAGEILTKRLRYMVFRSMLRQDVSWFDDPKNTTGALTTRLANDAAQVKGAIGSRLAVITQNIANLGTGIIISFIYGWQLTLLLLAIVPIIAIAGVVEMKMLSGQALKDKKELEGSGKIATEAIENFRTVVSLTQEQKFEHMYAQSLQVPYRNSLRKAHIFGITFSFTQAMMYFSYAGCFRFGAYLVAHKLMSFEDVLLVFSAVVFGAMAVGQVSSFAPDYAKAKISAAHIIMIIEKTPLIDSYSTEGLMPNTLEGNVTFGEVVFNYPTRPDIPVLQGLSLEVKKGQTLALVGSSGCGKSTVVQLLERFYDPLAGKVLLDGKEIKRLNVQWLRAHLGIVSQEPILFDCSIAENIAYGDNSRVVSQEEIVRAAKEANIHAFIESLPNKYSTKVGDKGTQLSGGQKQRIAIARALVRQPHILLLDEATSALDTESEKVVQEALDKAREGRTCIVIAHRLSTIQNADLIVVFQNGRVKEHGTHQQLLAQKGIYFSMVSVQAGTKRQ

The IC50 is the concentration that inhibits the measured activity by half. Higher therefore signals lower potency. The fraction unbound is free concentration divided by total concentration. Read a low fraction unbound as little free substance. With `Cc1cnc(-c2cc(N3CCN(C(=O)CCS(C)(=O)=O)CC3)ncc2Cl)c(C)c1` [Example A-116, 5′-chloro-3,5-dimethyl-2′-{4-[3-(methylsulfonyl)propanoyl]piperazin-1-yl}-2,4′-bipyridine], the IC50 on human Smo was found to be 6.8 nM; with Gli-Luc/MEF cells it was 2.76 nM. In addition, the inhibition at 0.05 µM at human Smo (0.05 μM test compound, read-out: Smo % inh. @ 0.05 μM) came to 101%. Besides, the “Gli1 level, % of vehicle control” value in the series with Gli1 turned out to be 4.5±0.4%. The fraction unbound in series [1] worked out at 0.067. Further, at P-glycoprotein, the P-glycoprotein substrate entry is recorded as “not a P-glycoprotein substrate”.

For the origin of these results see patent publication US9056865B2, “Pyridine-2-derivatives as smoothened receptor modulators” (Pfizer Inc., priority 2010, dated 2015).
